The values that follow come from ChEMBL document CHEMBL1137046, “Potent and selective proline derived dipeptidyl peptidase IV inhibitors” (Bioorg Med Chem Lett, 2004).

By IC50 is commonly meant the concentration at which inhibition is half-maximal. One may read the half-life as how long it takes for the measured level to halve. A low value points to rapid decline. What is called bioavailability is the share of a dose that reaches the circulation, judged against a reference dose that is usually intravenous. Low readings indicate little systemic uptake, high ones much systemic uptake.

A short description of data set [1]: Inhibition of Aminopeptidase P.
For a further data set, the target named is Dipeptidyl peptidase 8 (Homo sapiens, UniProt Q6V1X1). Kind of data set: Inhibition of Dipeptidylpeptidase VIII.
A further data set addresses T1, Xaa-Pro dipeptidase (Homo sapiens, UniProt P12955).
T1 sequence (P12955 whole entry): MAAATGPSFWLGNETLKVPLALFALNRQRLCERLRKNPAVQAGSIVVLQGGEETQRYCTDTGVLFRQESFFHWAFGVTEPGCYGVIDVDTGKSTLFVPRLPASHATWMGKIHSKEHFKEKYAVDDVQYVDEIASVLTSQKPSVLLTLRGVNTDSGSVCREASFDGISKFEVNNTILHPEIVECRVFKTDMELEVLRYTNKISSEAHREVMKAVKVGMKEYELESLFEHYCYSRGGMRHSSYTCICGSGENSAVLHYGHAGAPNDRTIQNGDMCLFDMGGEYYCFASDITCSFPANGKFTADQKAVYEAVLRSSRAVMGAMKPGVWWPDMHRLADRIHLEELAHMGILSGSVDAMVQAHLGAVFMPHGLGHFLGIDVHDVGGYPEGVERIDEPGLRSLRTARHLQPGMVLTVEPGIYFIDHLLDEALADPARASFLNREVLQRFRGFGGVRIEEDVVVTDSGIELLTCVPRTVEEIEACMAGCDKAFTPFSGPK
Briefly: Inhibition of prolidase.

In a further data set the target is T2, Prolyl endopeptidase (Homo sapiens, UniProt P48147).
T2 sequence (P48147 whole entry): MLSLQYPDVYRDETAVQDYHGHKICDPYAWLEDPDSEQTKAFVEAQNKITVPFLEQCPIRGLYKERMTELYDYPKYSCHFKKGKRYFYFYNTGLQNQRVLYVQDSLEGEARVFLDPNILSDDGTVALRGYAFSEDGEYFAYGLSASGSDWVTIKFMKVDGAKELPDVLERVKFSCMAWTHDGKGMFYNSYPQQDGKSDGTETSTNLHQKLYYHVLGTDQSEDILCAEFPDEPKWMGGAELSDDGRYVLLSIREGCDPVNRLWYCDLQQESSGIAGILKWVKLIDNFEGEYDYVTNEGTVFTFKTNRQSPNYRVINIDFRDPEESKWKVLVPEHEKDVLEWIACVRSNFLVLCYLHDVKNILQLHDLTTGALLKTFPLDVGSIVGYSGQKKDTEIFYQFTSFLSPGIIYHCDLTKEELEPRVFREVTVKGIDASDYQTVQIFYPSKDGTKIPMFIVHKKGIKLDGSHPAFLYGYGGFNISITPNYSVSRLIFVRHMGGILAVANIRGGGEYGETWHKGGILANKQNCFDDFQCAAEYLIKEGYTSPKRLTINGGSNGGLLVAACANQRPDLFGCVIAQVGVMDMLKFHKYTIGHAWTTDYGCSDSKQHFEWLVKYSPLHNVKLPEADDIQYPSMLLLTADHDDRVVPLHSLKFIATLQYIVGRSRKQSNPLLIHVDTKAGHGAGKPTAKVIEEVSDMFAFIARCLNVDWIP
Briefly: Inhibition of prolyl endopeptidase.

A further data set addresses T3, Prolyl endopeptidase FAP (Homo sapiens, UniProt Q12884).
T3 sequence (Q12884 whole entry): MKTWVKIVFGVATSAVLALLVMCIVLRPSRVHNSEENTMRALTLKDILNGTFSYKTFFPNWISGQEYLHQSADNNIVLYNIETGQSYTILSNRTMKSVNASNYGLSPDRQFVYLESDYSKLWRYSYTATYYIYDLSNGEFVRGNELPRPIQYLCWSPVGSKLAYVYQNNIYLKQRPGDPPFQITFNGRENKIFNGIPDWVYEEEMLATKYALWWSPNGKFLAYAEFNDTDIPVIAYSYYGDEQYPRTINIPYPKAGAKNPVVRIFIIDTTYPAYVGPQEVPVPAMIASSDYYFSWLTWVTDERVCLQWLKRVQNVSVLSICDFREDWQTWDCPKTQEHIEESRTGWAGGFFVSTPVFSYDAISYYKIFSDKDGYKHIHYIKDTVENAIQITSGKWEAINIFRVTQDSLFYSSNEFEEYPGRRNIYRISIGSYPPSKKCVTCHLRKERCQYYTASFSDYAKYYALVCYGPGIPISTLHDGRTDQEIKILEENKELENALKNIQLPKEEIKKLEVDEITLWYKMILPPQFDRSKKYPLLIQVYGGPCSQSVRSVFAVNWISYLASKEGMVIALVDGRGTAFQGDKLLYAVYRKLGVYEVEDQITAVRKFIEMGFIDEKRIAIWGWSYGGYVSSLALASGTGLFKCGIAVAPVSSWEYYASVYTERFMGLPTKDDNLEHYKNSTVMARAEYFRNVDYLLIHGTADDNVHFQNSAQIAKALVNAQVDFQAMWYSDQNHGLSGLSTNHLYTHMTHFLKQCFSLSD
Kind of data set: Inhibition of Fibroblast activation protein alpha (seprase).

The target of the next data set is Dipeptidyl peptidase 2 (Homo sapiens, UniProt Q9UHL4). Kind of data set: Inhibition of Quiescent cell prolyl dipeptidase.
Another data set addresses Dipeptidyl peptidase 4 (Homo sapiens, UniProt P27487). Kind of data set: Inhibition of human recombinant Dipeptidylpeptidase IV.
Data set [2] is described as follows: Half-life in rats ([…]/[…] mg/kg i.v./p.o.). Conditions: rat, in vivo, 2 mg/kg. Type of data set: ADME, organism-based.
Data set [3] can be described thus: Plasma clearance in rats (1/2 mg/kg i.v./p.o.). Type of data set: ADME, organism-based. Conditions: rat, 1 mg/kg i.v.
A further data set has as its target Dipeptidyl peptidase 9 (Homo sapiens, UniProt Q86TI2). Kind of data set: Inhibition of Dipeptidylpeptidase IX.
Data set [4] in a line: Oral bioavailability in rat (dose 1 mg/kg i.v. and 2 mg/kg p.o.). The data set is classed as ADME, organism-based. Conditions: in vivo.
Data set [5] concerns the target Voltage-gated inwardly rectifying potassium channel KCNH2 (Homo sapiens, UniProt Q12809). Briefly: Inhibition of human Potassium channel HERG.

Chain of Dipeptidyl peptidase 9 (Q86TI2 whole entry): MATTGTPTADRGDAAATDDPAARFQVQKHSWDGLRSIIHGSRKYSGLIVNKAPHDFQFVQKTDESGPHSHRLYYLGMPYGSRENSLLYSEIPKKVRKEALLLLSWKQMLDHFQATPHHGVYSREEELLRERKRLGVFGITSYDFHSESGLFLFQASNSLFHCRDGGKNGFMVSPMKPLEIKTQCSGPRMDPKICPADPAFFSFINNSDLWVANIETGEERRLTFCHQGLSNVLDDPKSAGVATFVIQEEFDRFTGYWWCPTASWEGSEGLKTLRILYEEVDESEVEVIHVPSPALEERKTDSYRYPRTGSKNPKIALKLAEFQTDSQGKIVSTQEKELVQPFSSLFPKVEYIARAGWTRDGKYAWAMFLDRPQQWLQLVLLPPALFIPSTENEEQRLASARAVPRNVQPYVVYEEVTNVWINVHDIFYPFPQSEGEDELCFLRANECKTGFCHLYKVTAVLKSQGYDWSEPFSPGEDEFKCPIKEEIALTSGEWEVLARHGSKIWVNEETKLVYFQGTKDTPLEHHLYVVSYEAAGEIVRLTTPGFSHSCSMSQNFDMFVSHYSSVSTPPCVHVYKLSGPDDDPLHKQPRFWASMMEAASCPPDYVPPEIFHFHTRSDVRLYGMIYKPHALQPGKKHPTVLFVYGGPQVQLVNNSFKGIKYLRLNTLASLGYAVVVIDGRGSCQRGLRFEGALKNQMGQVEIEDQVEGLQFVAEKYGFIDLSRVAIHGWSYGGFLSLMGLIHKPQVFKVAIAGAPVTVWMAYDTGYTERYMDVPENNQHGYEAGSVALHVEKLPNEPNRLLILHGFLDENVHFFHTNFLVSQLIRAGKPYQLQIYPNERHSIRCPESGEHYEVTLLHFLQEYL
Chain of Dipeptidyl peptidase 8 (Q6V1X1 whole entry): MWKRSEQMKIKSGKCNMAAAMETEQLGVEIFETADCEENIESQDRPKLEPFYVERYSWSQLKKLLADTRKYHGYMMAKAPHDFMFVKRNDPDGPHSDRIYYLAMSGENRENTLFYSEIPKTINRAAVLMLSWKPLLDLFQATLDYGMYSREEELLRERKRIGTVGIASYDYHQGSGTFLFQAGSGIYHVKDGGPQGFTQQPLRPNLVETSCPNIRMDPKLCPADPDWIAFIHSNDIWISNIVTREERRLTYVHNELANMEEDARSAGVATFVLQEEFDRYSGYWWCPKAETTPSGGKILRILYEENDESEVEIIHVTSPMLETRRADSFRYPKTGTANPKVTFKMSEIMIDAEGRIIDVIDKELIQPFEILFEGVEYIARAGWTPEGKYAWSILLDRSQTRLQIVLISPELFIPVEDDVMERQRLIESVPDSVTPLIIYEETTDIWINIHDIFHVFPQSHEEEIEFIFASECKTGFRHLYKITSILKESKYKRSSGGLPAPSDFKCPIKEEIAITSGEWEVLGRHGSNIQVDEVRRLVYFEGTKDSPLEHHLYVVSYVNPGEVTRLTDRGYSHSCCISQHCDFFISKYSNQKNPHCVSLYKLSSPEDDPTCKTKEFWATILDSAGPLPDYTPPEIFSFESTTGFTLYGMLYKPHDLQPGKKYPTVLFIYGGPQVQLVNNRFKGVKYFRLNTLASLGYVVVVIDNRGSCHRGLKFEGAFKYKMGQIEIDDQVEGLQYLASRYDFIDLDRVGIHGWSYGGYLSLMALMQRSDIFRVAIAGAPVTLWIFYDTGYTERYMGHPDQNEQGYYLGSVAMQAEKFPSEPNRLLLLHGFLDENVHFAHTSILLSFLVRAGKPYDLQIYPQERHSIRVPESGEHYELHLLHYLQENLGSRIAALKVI
Chain of Dipeptidyl peptidase 4 (P27487 whole entry): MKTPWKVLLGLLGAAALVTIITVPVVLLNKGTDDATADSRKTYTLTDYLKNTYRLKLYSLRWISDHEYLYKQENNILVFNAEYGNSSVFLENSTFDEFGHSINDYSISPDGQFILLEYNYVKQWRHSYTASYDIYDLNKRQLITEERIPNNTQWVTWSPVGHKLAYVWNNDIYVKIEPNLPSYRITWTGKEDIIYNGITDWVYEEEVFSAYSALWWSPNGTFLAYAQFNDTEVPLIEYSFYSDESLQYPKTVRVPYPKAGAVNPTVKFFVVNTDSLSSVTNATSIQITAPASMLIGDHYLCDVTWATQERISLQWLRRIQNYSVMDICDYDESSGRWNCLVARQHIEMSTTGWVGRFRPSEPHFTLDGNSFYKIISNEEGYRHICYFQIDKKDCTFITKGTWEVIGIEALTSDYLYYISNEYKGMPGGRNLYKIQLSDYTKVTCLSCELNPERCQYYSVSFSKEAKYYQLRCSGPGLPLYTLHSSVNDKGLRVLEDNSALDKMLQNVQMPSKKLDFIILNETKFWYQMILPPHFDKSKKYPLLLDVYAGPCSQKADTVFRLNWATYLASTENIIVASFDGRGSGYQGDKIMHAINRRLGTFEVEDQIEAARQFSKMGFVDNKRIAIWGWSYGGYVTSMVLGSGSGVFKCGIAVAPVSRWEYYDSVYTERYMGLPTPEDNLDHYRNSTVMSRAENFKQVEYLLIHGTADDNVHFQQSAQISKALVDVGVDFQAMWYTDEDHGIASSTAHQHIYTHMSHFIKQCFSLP
Chain of Voltage-gated inwardly rectifying potassium channel KCNH2 (Q12809 whole entry): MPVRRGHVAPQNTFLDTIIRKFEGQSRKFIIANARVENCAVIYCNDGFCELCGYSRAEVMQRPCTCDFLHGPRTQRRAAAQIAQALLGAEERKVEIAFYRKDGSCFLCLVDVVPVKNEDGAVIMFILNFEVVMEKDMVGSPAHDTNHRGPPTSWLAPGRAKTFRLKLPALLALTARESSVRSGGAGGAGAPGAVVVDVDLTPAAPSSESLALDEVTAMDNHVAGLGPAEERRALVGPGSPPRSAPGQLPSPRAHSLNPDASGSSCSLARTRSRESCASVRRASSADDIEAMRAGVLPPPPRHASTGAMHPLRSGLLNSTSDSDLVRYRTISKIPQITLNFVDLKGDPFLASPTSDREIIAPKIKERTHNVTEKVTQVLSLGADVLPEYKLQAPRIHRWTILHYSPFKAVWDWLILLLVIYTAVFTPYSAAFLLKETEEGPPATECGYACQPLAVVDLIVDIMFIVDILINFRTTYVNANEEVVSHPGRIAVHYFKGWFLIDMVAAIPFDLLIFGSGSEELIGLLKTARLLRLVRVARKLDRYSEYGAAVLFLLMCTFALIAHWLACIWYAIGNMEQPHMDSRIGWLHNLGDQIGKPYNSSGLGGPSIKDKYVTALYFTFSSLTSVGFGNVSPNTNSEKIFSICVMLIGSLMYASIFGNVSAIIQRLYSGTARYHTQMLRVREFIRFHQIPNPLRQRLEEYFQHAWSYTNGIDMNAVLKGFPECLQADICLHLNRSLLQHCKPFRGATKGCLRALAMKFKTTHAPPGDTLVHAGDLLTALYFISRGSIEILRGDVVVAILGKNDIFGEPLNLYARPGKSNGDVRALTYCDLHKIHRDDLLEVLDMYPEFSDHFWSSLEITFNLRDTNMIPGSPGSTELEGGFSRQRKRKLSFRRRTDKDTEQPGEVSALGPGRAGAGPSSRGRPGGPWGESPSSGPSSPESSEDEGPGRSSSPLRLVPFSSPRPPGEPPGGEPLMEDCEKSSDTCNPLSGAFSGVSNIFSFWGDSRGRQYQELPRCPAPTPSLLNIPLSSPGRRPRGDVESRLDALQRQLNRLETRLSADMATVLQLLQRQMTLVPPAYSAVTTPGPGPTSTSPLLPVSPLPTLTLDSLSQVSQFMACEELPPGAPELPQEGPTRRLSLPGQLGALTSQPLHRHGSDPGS

On to `CC(C)[C@@H](Oc1ccc(CNC(=O)[C@@H]2CCCN2C(=O)CC(N)Cc2cc(F)ccc2F)cc1)C(=O)O.O=C(O)C(F)(F)F` (stereo not given in full), for which the half-maximal inhibitory concentration (IC50) in [1] is more than 100 µM; against Dipeptidyl peptidase 8, more than 100 µM; against Xaa-Pro dipeptidase it was more than 100 µM; at Prolyl endopeptidase, 39 µM; at Prolyl endopeptidase FAP, 21 µM; at Dipeptidyl peptidase 2, more than 100 µM. Besides, the IC50 on Dipeptidyl peptidase 4 stood at 0.00048 µM; on Dipeptidyl peptidase 9, 86 µM. This molecule also gave a half-life in data set [2] of 37.8 min. This molecule came in with a clearance in data set [3] of 150 mL/min/kg.

As to `NC(CC(=O)N1CCC[C@H]1C(=O)NCCCCc1nn[nH]n1)Cc1ccccc1F.O=C(O)C(F)(F)F` (stereo not given in full), the IC50 in data set [1] was more than 100 µM; at Dipeptidyl peptidase 8 it was more than 100 µM; on Xaa-Pro dipeptidase, more than 100 µM; on Prolyl endopeptidase FAP it was more than 100 µM; against Dipeptidyl peptidase 2 it was more than 100 µM; on Dipeptidyl peptidase 4 it was 0.039 µM. On Dipeptidyl peptidase 9, this molecule returned an IC50 of more than 100 µM. In data set [2], this molecule gave a half-life of 12 min. Moreover, the clearance in [3] worked out at 54 mL/min/kg. Further, the bioavailability in data set [4] is less than 1%.

Turning to `CC(C)[C@@H](Oc1ccc(CNC(=O)[C@@H]2CCCN2C(=O)CC(N)Cc2c(F)c(F)c(F)c(F)c2F)cc1)C(=O)O.O=C(O)C(F)(F)F` (stereo not given in full), the IC50 in [1] was more than 100 µM; at Dipeptidyl peptidase 8 it was more than 100 µM; against Xaa-Pro dipeptidase it was more than 100 µM; on Prolyl endopeptidase, more than 100 µM; against Prolyl endopeptidase FAP, 48 µM; at Dipeptidyl peptidase 2, more than 100 µM. In addition, the IC50 is 0.0082 µM on Dipeptidyl peptidase 4 and more than 100 µM against Dipeptidyl peptidase 9. Further, the half-life in data set [2] is 21.6 min. The molecule further showed a clearance in data set [3] of 47 mL/min/kg. Besides, in data set [4], the bioavailability was less than 1%.

For the molecule `NC(CC(=O)N1CSC[C@H]1C(=O)NCc1ccc(CC(=O)O)cc1)Cc1ccccc1F.O=C(O)C(F)(F)F` (stereo not given in full), the IC50 is more than 50 µM against Dipeptidyl peptidase 8, more than 100 µM on Prolyl endopeptidase FAP and more than 100 µM against Dipeptidyl peptidase 2. The same molecule gave a half-life in data set [2] of 11.4 min. The molecule also gave a clearance in [3] of 25 mL/min/kg. Also, the bioavailability in data set [4] was determined as 10%.

Consider `NC(CC(=O)N1CCC[C@H]1C(=O)NCc1ccc(C(=O)O)cc1)Cc1ccc(F)c(F)c1.O=C(O)C(F)(F)F` (stereo not given in full), for which the IC50 against Dipeptidyl peptidase 8, against Prolyl endopeptidase FAP, against Dipeptidyl peptidase 2 and against Dipeptidyl peptidase 9 was more than 100 µM each time. Further, the half-life in data set [2] was 21.6 min. The molecule further yielded a clearance in data set [3] of 47 mL/min/kg. The same molecule returned a bioavailability in data set [4] of less than 1%.

On to `COC(=O)Cc1ccc(CNC(=O)[C@@H]2CSCN2C(=O)CC(N)Cc2ccccc2F)cc1.O=C(O)C(F)(F)F` (stereo not given in full), for which the IC50 was more than 100 µM in data set [1]; more than 100 µM against Dipeptidyl peptidase 8; more than 100 µM against Xaa-Pro dipeptidase; 9.7 µM in data set [5]; 100 µM on Prolyl endopeptidase; more than 100 µM against Prolyl endopeptidase FAP. Besides, the results for the IC50 against Dipeptidyl peptidase 2, on Dipeptidyl peptidase 4 and against Dipeptidyl peptidase 9 were 59 µM, 0.087 µM and more than 100 µM, respectively. The half-life in data set [2] was 6 min. The clearance in data set [3] amounted to 140 mL/min/kg. Besides, the bioavailability in data set [4] amounted to 11%.

As for `CC(C)[C@@H](Oc1ccc(CNC(=O)[C@@H]2CCCN2C(=O)C(N)C2CCCCC2)cc1)C(=O)O` (stereo not given in full), the IC50 in data set [5] is more than 90 µM; at Prolyl endopeptidase it was more than 100 µM; against Prolyl endopeptidase FAP, more than 100 µM; at Dipeptidyl peptidase 2, more than 100 µM.

`NC(CC(=O)N1CCC[C@H]1C(=O)NCc1ccc(C(F)(F)F)cc1)Cc1ccccc1F.O=C(O)C(F)(F)F` (stereo not given in full): the IC50 in [1] is more than 100 µM; at Dipeptidyl peptidase 8, 5.3 µM; against Xaa-Pro dipeptidase it was more than 100 µM; against Prolyl endopeptidase FAP, more than 100 µM; against Dipeptidyl peptidase 2 it was 55 µM; at Dipeptidyl peptidase 4 it was 0.721 µM. At Dipeptidyl peptidase 9, this molecule yielded an IC50 of more than 100 µM. The molecule further gave a half-life in data set [2] of 46.8 min. In [3], this molecule displayed a clearance of 78 mL/min/kg. This molecule showed a bioavailability in data set [4] of 38%.
